The values below come from patent publication US12398154B2, “Azaquinazoline pan-KRas inhibitors” (Mirati Therapeutics, Inc., priority 2020, dated 2025).

Assay [1] deals with phospho-ERK in AsPC-1 (G12D) cells. Description: Inhibition of KRas-mediated phosphorylation of ERK (in-cell western). Particulars: Homo sapiens, ASPC1, 3 h, 3 hours compound, phospho-ERK normalized to GAPDH. The class given is cell-based. As for the experimental part:
(§1) Diluted compounds were then added in a final concentration of 0.5% DMSO. After 3 hours, 50 μL of 4.0% formaldehyde was added and the plates incubated at room temperature for 20 minutes. The plates were then dumped and permeabilized with 150 μL of ice cold 100% methanol for 10 minutes.
(§2) The amount of phospho-ERK was determined using an antibody specific for the phosphorylated form of ERK and compared to the amount of GAPDH. […] The plates were incubated overnight at 4° C. The plates were washed 3× with 150 uL PBS+0.1% Tween 20.
(§3) The plates were washed 3× with 150 uL PBS+0.1% Tween 20. Plates were imaged dry on a Li-COR Odyssey CLX plate reader.
(§4) The phospho-ERK (Thr202/Tyr204) signal was normalized to the GAPDH signal for each well and percent of DMSO control values were calculated. IC50 values were generated using a 4-parameter fit of the dose response curve.

Assay [2] has as its system phospho-ERK in NCI-H460 (Q61H) cells. The description is as above. The assay is classed as cell-based. Particulars: Homo sapiens, NCI-H460, 3 h, 3 hours compound, phospho-ERK normalized to GAPDH. The protocol: as §1, §2, §3, §4
Assay [3] concerns phospho-ERK in NCI-H727 (G12V) cells. The description is as above. The class given is cell-based. Particulars: Homo sapiens, NCI-H727, 3 h, 3 hours compound, phospho-ERK normalized to GAPDH. The protocol: as §1, §2, §3, §4
Another assay addresses KRas G12D (Homo sapiens, UniProt P01116, G12D). Description: biochemical.
The next assay addresses KRas G12V (Homo sapiens, UniProt P01116, G12V). Description: biochemical.
Another assay deals with KRas G12R (Homo sapiens, UniProt P01116, G12R). Kind of assay: biochemical.
In the next assay the test system is pERK in MKN1 cells. Kind of assay: Inhibition of KRas phosphorylation of ERK (Cisbio HTRF pERK assay). Particulars: Homo sapiens, MKN-1, 3 h, read-out: Inhibition (HTRF IC50) of KRas-mediated Phosphorylation of ERK, MKN1. On the technique in general: In TR-FRET formats the signal depends on donor and acceptor labels being close together.
The subject of the next assay is pERK in PSN1 cells. Described as above. The following applies: Homo sapiens, PSN1, 3 h, read-out: Inhibition (HTRF IC50) of KRas-mediated Phosphorylation of ERK, PSN1.

Sequence of KRas G12R (P01116 1-169 isoform P01116-2 G12R): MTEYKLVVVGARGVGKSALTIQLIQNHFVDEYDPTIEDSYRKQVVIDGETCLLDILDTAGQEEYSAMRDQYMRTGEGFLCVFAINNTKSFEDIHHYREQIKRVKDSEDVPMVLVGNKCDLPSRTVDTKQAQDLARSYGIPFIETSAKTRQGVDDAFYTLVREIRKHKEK
Sequence of KRas G12D (P01116 1-169 isoform P01116-2 G12D): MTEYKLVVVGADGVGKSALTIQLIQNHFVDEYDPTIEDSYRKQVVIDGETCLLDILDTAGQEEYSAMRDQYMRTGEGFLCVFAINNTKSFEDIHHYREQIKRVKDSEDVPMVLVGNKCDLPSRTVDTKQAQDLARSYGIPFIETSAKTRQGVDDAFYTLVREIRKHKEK
Sequence of KRas G12V (P01116 1-169 isoform P01116-2 G12V): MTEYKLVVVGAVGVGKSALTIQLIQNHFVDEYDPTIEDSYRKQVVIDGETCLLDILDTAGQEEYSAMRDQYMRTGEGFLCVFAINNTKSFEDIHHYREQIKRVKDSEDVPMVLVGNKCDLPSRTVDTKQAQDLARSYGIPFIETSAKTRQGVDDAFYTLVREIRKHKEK

The IC50 is the concentration that gives 50% inhibition. Regarding `CCc1c(F)ccc2cc(O)cc(-c3ncc4c(NC56CC(CO)(C5)C6)nc(OC[C@@]56CCCN5C[C@H](F)C6)nc4c3F)c12` [Example 167, 5-ethyl-6-fluoro-4-(8-fluoro-2-(((2R,7aS)-2-fluorohexahydro-1H-pyrrolizin-7a-yl)methoxy)-4-((3-(hydroxymethyl)bicyclo[1.1.1]pentan-1-yl)amino)pyrido[4,3-d]pyrimidin-7-yl) naphthalen-2-ol], the IC50 in assay [1] is 6760 nM; in assay [2] it was 623 nM; in assay [3], 1250 nM; on KRas G12D it was 16 nM; against KRas G12V it was at most 2 nM; at KRas G12R, at most 2 nM. For the same compound, the IC50 in the assay with pERK in MKN1 cells was 3 nM; with pERK in PSN1 cells it was at least 10000 nM.
Consider `O=C1CC2(CCCN(c3nc(OC[C@@]45CCCN4C[C@H](F)C5)nc4c(F)c(-c5cc(O)cc6ccc(F)c(F)c56)ncc34)C2)CN1` (stereo partly drawn) [Example 446, 7-(7-(7,8-difluoro-3-hydroxynaphthalen-1-yl)-8-fluoro-2-(((2R,7aS)-2-fluorohexahydro-1H-pyrrolizin-7a-yl)methoxy)pyrido[4,3-d]pyrimidin-4-yl)-2,7-diazaspiro[4.5]decan-3-one], for which the IC50 was 3670 nM in assay [1]; 2190 nM in assay [2]; 2500 nM in assay [3]; 4 nM at KRas G12D; at most 2 nM against KRas G12V; 4 nM on KRas G12R. Besides, the IC50 was 786 nM in the assay on pERK in MKN1 cells and at least 10000 nM in the assay on pERK in PSN1 cells.
For `CCc1c(F)ccc2cc(O)cc(-c3ncc4c(N5CCC[C@@](C)(O)C5)nc(OC[C@@]56CCCN5C[C@H](O)C6)nc4c3F)c12` [Example 311, (2R,7aS)-7a-(((7-(8-ethyl-7-fluoro-3-hydroxynaphthalen-1-yl)-8-fluoro-4-((R)-3-hydroxy-3-methylpiperidin-1-yl)pyrido[4,3-d]pyrimidin-2-yl)oxy)methyl)hexahydro-1H-pyrrolizin-2-ol], the concentration for half-maximal inhibition (IC50) in assay [1] is 738 nM; in assay [2], 501 nM; in assay [3] it was 2600 nM; against KRas G12D, at most 2 nM; against KRas G12V it was at most 2 nM; on KRas G12R, at most 2 nM. The values for the IC50 in the assay with pERK in MKN1 cells and in the assay on pERK in PSN1 cells were 15 nM and at least 10000 nM, respectively.
As to `Oc1cc(-c2ncc3c(N4CCC[C@]5(C4)C[C@@H](O)C5)nc(OC[C@@]45CCCN4C[C@H](F)C5)nc3c2F)c2c(F)c(F)ccc2c1` (single isomer, unassigned) [Example 442], the half-maximal inhibitory concentration (IC50) was 134 nM in assay [1]; 124 nM in assay [2]; 234 nM in assay [3]; at most 2 nM on KRas G12D; at most 2 nM against KRas G12V; at most 2 nM against KRas G12R. The IC50 came to 9 nM in the assay with pERK in MKN1 cells and 2850 nM in the assay with pERK in PSN1 cells.
Regarding `NS(=O)(=O)CC1CCCN(c2nc(OC[C@@]34CCCN3C[C@H](F)C4)nc3c(F)c(-c4cc(O)cc5ccc(F)c(F)c45)ncc23)C1` (stereo partly shown) [Example 203], the half-inhibitory concentration (IC50) was 8010 nM in assay [1]; 758 nM in assay [2]; 1270 nM in assay [3]; at most 2 nM against KRas G12D; at most 2 nM at KRas G12V; at most 2 nM against KRas G12R. The IC50 in the assay on pERK in MKN1 cells was determined as 35 nM; in the assay on pERK in PSN1 cells, 3710 nM.
Turning to `CCc1c(F)ccc2cc(O)cc(-c3ncc4c(N5CC[C@H](C)[C@@H](O)C5)nc(OC[C@@]56CCCN5C[C@H](F)C6)nc4c3F)c12` [Example 188], the IC50 worked out at 2070 nM in assay [1]; 478 nM in assay [2]; 2140 nM in assay [3]; 48 nM against KRas G12D; 19 nM against KRas G12V; 23 nM on KRas G12R. The results for the IC50 in the assay with pERK in MKN1 cells and in the assay on pERK in PSN1 cells were 77 nM and at least 10000 nM, respectively.
Consider `CCc1c(F)ccc2cc(O)cc(-c3ncc4c(N5CCC[C@@H](O)[C@H]5C)nc(OC[C@@]56CCCN5C[C@H](F)C6)nc4c3F)c12` [Example 181], for which the IC50 was determined as 1540 nM in assay [1]; 584 nM in assay [2]; 1610 nM in assay [3]; 29 nM on KRas G12D; 17 nM at KRas G12V; 10 nM on KRas G12R. For the same compound, the results for the IC50 with pERK in MKN1 cells and with pERK in PSN1 cells were 139 nM and 6700 nM, respectively.
Consider `CCc1c(F)ccc2cc(O)cc(-c3ncc4c(N5CCC[C@@](C)(O)C5)nc(OC[C@]56CCCN5[C@@H](CO)CC6)nc4c3F)c12` [Example 303, (R)-1-(7-(8-ethyl-7-fluoro-3-hydroxynaphthalen-1-yl)-8-fluoro-2-(((3R,7aR)-3-(hydroxymethyl)hexahydro-1H-pyrrolizin-7a-yl)methoxy)pyrido[4,3-d]pyrimidin-4-yl)-3-methylpiperidin-3-ol], for which the IC50 in assay [1] is 3290 nM; in assay [2], 4120 nM; in assay [3] it was 3690 nM; against KRas G12D it was at most 2 nM; at KRas G12V it was at most 2 nM; against KRas G12R, at most 2 nM. In addition, the IC50 in the assay on pERK in MKN1 cells was 358 nM; with pERK in PSN1 cells it was at least 10000 nM.
`CCc1c(F)ccc2cc(O)cc(-c3ncc4c(N5CC[C@@H](C)[C@@H](O)C5)nc(OC[C@@]56CCCN5C[C@H](F)C6)nc4c3F)c12` [Example 189]: the IC50 was found to be 1240 nM in assay [1]; 377 nM in assay [2]; 1430 nM in assay [3]; 32 nM on KRas G12D; 18 nM against KRas G12V; 18 nM at KRas G12R. The figures for the IC50 in the assay on pERK in MKN1 cells and in the assay with pERK in PSN1 cells were 29 nM and 5540 nM, respectively.
For `CCc1c(F)ccc2cc(O)cc(-c3ncc4c(NCCCc5cccnc5)nc(OC[C@@]56CCCN5C[C@H](F)C6)nc4c3F)c12` [Example 198, 5-ethyl-6-fluoro-4-(8-fluoro-2-(((2R,7aS)-2-fluorohexahydro-1H-pyrrolizin-7a-yl)methoxy)-4-((3-(pyridin-3-yl)propyl)amino)pyrido[4,3-d]pyrimidin-7-yl)naphthalen-2-ol], the IC50 turned out to be 2690 nM in assay [1]; 803 nM in assay [2]; 1750 nM in assay [3]; 86 nM against KRas G12D; 9 nM at KRas G12V; 8 nM on KRas G12R. In addition, the IC50 in the assay on pERK in MKN1 cells is 183 nM; in the assay with pERK in PSN1 cells, at least 10000 nM.
As to `CCc1c(F)ccc2cc(O)cc(-c3ncc4c(N5CCC(F)(F)C(O)C5)nc(OC[C@@]56CCCN5C[C@H](F)C6)nc4c3F)c12` (stereo partly shown) [Example 191], the IC50 was 665 nM in assay [1]; 230 nM in assay [2]; 714 nM in assay [3]; 9 nM on KRas G12D; 4 nM at KRas G12V; 4 nM at KRas G12R. In addition, the IC50 with pERK in MKN1 cells turned out to be 15 nM; in the assay with pERK in PSN1 cells it was 5850 nM.
Regarding `CCc1c(F)ccc2cc(O)cc(-c3ncc4c(N5C[C@@H](C)C[C@@H](O)C5)nc(OC[C@@]56CCCN5C[C@H](F)C6)nc4c3F)c12` [Example 180], the IC50 in assay [1] was 205 nM; in assay [2] it was 113 nM; in assay [3] it was 623 nM; on KRas G12D, 4 nM; against KRas G12V it was at most 2 nM; at KRas G12R it was 4 nM. Further, the IC50 in the assay with pERK in MKN1 cells turned out to be 10 nM; in the assay with pERK in PSN1 cells, 6900 nM.
With `CCc1c(F)ccc2cc(O)cc(-c3ncc4c(N5C[C@H](O)C[C@H](F)C5)nc(OC[C@@]56CCCN5C[C@H](F)C6)nc4c3F)c12` [Example 192], the IC50 is 90 nM in assay [1]; 51 nM in assay [2]; 191 nM in assay [3]; at most 2 nM against KRas G12D; at most 2 nM against KRas G12V; at most 2 nM at KRas G12R. In addition, the values for the IC50 with pERK in MKN1 cells and in the assay with pERK in PSN1 cells were 4 nM and 7340 nM, respectively.
In the case of `O=C1NCC2(CCCN(c3nc(OC[C@@]45CCCN4C[C@H](F)C5)nc4c(F)c(-c5cc(O)cc6ccc(F)c(F)c56)ncc34)C2)N1` (stereo partly drawn) [Example 445, 7-(7-(7,8-difluoro-3-hydroxynaphthalen-1-yl)-8-fluoro-2-(((2R,7aS)-2-fluorohexahydro-1H-pyrrolizin-7a-yl)methoxy)pyrido[4,3-d]pyrimidin-4-yl)-1,3,7-triazaspiro[4.5]decan-2-one], the IC50 in assay [1] was 1620 nM; in assay [2], 1190 nM; in assay [3] it was 2930 nM; against KRas G12D, 4 nM; on KRas G12V, at most 2 nM; on KRas G12R, at most 2 nM. For the same compound, the half-inhibitory concentration (IC50) in the assay with pERK in MKN1 cells is 8200 nM; in the assay on pERK in PSN1 cells, at least 10000 nM.
